Here are results for 39 compounds from US6803378B2, “HIV integrase inhibitors” (Bristol-Myers Squibb Company, priority 2000, dated 2004).

The assay deals with T1, HIV-1 integrase (Human immunodeficiency virus type 1 group M subtype B, UniProt P04585).
T1 construct: Purified recombinant HIV-1 integrase was incubated with immobilized precleaved substrate DNA
As to the kind of experiment: In vitro activity against integrase, Method A (immobilized precleaved substrate DNA, biotinylated target DNA, 96 well plate). It counts as biochemical. The following applies: Assay Method A, read-out: Percent inhibition of HIV Integrase at 70 uM. Here is the method: The in vitro activities, against integrase, of compounds of the present invention were measured by one of the following three methods.
In Method A, the in vitro activity against integrase was measured in a manner which was similar to previously disclosed methods (cf. Hazuda, D. J.; Felock, P.; Witmer, M.; Wolfe, A.; Stillmock, K.; Grobler, J. A.; Espeseth, A.; Gabryelski, L.; Schleif, W.; Blau, C.; Miller, M. D. Science, 2000, 287, 646) Purified recombinant HIV-1 integrase was incubated with immobilized precleaved substrate DNA in a 96 well plate for 20 min at 37° C. After the integration complex was formed, compounds at desired concentrations were added to the wells followed by a 10 min incubation at 37° C. Biotinyted Target DNA was then added and the reaction was carried out for an additional 1 hour at 37° C. Wells were then washed thoroughly to remove any free DNA and integration activity was measured by using a commercial kit to quantitate the amount of biotinyted target DNA integrated into the substrate.
For the compound `CN(Cc1csc2ccc(Cl)cc12)C(=O)/C=C(\O)C(=O)O` [Compound 15, 3-[(5-Chloro-benzo[b]thiophen-3-ylmethyl)-methyl-carbamoyl]-2-hydroxy-acrylic acid], the inhibition – broadly, the percentage by which the read-out fell short of the control – at 70 µM was determined as 97%. As for `CN(Cc1ccccc1OCc1ccc(F)cc1)C(=O)/C=C(\O)C(=O)O` [Compound 82, 3-{[2-(4-Fluoro-benzyloxy)-benzyl]-methyl-carbamoyl}-2-hydroxy-acrylic acid], the figure is 80%; as for `COc1cccc(CN(C)C(=O)/C=C(\O)C(=O)O)c1` [Compound 33, 2-Hydroxy-3-[(3-methoxy-benzyl)-methyl-carbamoyl]-acrylic acid], 90%; as for `CC(C)N(Cc1ccc(F)cc1)C(=O)/C=C(\O)C(=O)O` [Compound 29, 3-[(4-Fluoro-benzyl)-isopropyl-carbamoyl]-2-hydroxy-acrylic acid], 38%. The result for `CC(c1ccccc1)N(Cc1ccc(F)cc1)C(=O)/C=C(\O)C(=O)O` (stereo not drawn) [Compound 23, 3-[(4-Fluoro-benzyl)-(1-phenyl-ethyl)-carbamoyl]-2-hydroxy-acrylic acid] reads 55%. The result for `CCN(Cc1ccc(F)cc1)C(=O)/C=C(\O)C(=O)O` [Compound 32, 3-[Ethyl-(4-fluoro-benzyl)-carbamoyl]-2-hydroxy-acrylic acid] reads 93%; that for `O=C(O)/C(O)=C/C(=O)N(Cc1ccc(F)cc1)Cc1cccc(Cl)c1` [Compound 28, 3-[(3-Chloro-benzyl)-(4-fluoro-benzyl)-carbamoyl]-2-hydroxy-acrylic acid], 96.5%; that for `CN(Cc1ccc(F)c2ccccc12)C(=O)/C=C(\O)C(=O)O` [Compound 41, 3-[(4-Fluoro-naphthalen-1-ylmethyl)-methyl-carbamoyl]-2-hydroxy-acrylic acid], 95%. Turning to `CN(Cc1ccccc1Br)C(=O)/C=C(\O)C(=O)O` [Compound 12, 3-[(2-Bromo-benzyl)-methyl-carbamoyl]-2-hydroxy-acrylic acid], the inhibition at 70 µM was found to be 85%. As for `Cc1ccc(CN(C)C(=O)/C=C(\O)C(=O)O)cc1` [Compound 30, 2-Hydroxy-3-[methyl-(4-methyl-benzyl)-carbamoyl]-acrylic acid], the figure is 84%; as for `O=C(O)/C(O)=C/C(=O)N(CCc1ccccc1)Cc1ccccc1` [Compound 13, 3-(Benzyl-phenethyl-carbamoyl)-2-hydroxy-acrylic acid], 94%; as for `O=C(O)/C(O)=C/C(=O)N(Cc1ccc(F)cc1)Cc1ccccc1Cl` [Compound 19, 3-[(2-Chloro-benzyl)-(4-fluoro-benzyl)-carbamoyl]-2-hydroxy-acrylic acid], 96.5%. The result for `CN(Cc1cccc(-c2ccccc2)c1)C(=O)/C=C(\O)C(=O)O` [Compound 34, 3-(Biphenyl-3-ylmethyl-methyl-carbamoyl)-2-hydroxy-acrylic acid] reads 85%; that for `COc1ccc(CN(C)C(=O)/C=C(\O)C(=O)O)cc1` [Compound 31, 2-Hydroxy-3-[(4-methoxy-benzyl)-methyl-carbamoyl]-acrylic acid], 82%.

Turning to `CN(C(=O)/C=C(\O)C(=O)O)C(c1ccccc1)c1ccccc1` [Compound 7, 3-(Benzhydryl-methyl-carbamoyl)-2-hydroxy-acrylic acid], the inhibition at 70 µM is 32%. As for `CN(Cc1cccc(OCc2ccc(F)cc2)c1)C(=O)/C=C(\O)C(=O)O` [Compound 3, 3-{[3-(4-Fluoro-benzyloxy)-benzyl]-methyl-carbamoyl}-2-hydroxy-acrylic acid], the figure is 99%.

On to `O=C(O)/C(O)=C/C(=O)N(CCc1ccc(F)cc1)Cc1ccccc1Cl` [Compound 18, 3-{(2-Chloro-benzyl)-[2-(4-fluoro-phenyl)-ethyl]-carbamoyl}-2-hydroxy-acrylic acid], for which the inhibition at 70 µM stood at 89.5%. As for `O=C(O)/C(O)=C/C(=O)N(Cc1ccc(F)cc1)Cc1ccc(Cl)cc1` [Compound 24, 3-[(4-Chloro-benzyl)-(4-fluoro-benzyl)-carbamoyl]-2-hydroxy-acrylic acid], the figure is 90%; as for `O=C(O)/C(O)=C/C(=O)N(Cc1ccc(F)cc1)Cc1ccc(F)cc1F` [Compound 25, 3-[(2,4-Difluoro-benzyl)-(4-fluoro-benzyl)-carbamoyl]-2-hydroxy-acrylic acid], 96.5%; as for `CN(Cc1cccc(F)c1)C(=O)/C=C(\O)C(=O)O` [Compound 40, 3-[(3-Fluoro-benzyl)-methyl-carbamoyl]-2-hydroxy-acrylic acid], 90%. Consider `CN(C(=O)/C=C(\O)C(=O)O)C(c1ccc(F)cc1)c1cccnc1` (stereo not drawn) [Compound 77, 3-{[(4-Fluoro-phenyl)-pyridin-3-yl-methyl]-methyl-carbamoyl}-2-hydroxy-acrylic acid], for which the inhibition at 70 µM came to 60%. The result for `O=C(O)CNC(=O)/C(O)=C/C(=O)N(Cc1ccc(F)cc1)Cc1ccc(F)cc1` [Compound 145, {3-[Bis-(4-fluoro-benzyl)-carbamoyl]-2-hydroxy-acryloylamino}-acetic acid] reads 95%; that for `COc1ccc(C(c2ccc(OC)cc2)N(C)C(=O)/C=C(\O)C(=O)O)cc1` [Compound 6, 3-{[Bis-(4-methoxy-phenyl)-methyl]-methyl-carbamoyl}-2-hydroxy-acrylic acid], 75%. Turning to `CC(C)(C)N(Cc1ccc(F)cc1)C(=O)/C=C(\O)C(=O)O` [Compound 27, 3-[tert-Butyl-(4-fluoro-benzyl)-carbamoyl]-2-hydroxy-acrylic acid], the inhibition at 70 µM was 33.5%. As for `O=C(O)/C(O)=C/C(=O)N(CCCc1ccccc1)Cc1ccc(F)cc1` [Compound 43, 3-[(4-Fluoro-benzyl)-(3-phenyl-propyl)-carbamoyl]-2-hydroxy-acrylic acid], the inhibition at 70 µM is 93.5%.

Regarding `O=C(O)/C(O)=C/C(=O)N(Cc1ccc(F)cc1)Cc1ccc(F)c(F)c1` [Compound 26, 3-[(3,4-Difluoro-benzyl)-(4-fluoro-benzyl)-carbamoyl]-2-hydroxy-acrylic acid], the inhibition at 70 µM worked out at 97%. As to `CN(CCc1ccc(F)cc1)C(=O)/C=C(\O)C(=O)O` [Compound 22, 3-{[2-(4-Fluoro-phenyl)-ethyl]-methyl-carbamoyl}-2-hydroxy-acrylic acid], the inhibition at 70 µM is 75%. Regarding `CN(Cc1ccc(OCc2ccc(F)cc2)cc1)C(=O)/C=C(\O)C(=O)O` [Compound 1, 3-{[4-(4-Fluoro-benzyloxy)-benzyl]-methyl-carbamoyl}-2-hydroxy-acrylic acid], the inhibition at 70 µM is 40%. The result for `O=C(O)/C(O)=C/C(=O)N(CCc1ccc(F)cc1)Cc1csc2ccc(Cl)cc12` [Compound 20, 3-{(5-Chloro-benzo[b]thiophen-3-ylmethyl)-[2-(4-fluoro-phenyl)-ethyl]-carbamoyl}-2-hydroxy-acrylic acid] reads 97.5%; that for `O=C(O)/C(O)=C/C(=O)N(Cc1ccc(F)cc1)c1ccc(F)cc1OCc1ccc(F)cc1` [Compound 88, 3-{(4-Fluoro-benzyl)-[4-fluoro-2-(4-fluoro-benzyloxy)-phenyl]-carbamoyl}-2-hydroxy-acrylic acid], 90%. For the compound `O=C(O)/C(O)=C/C(=O)N(Cc1ccc(F)cc1)Cc1csc2ccc(Cl)cc12` [Compound 21, 3-[(5-Chloro-benzo[b]thiophen-3-ylmethyl)7(4-fluoro-benzyl)-carbamoyl]-2-hydroxy-acrylic acid], the inhibition at 70 µM is 98%. For the compound `COCCN(Cc1ccc(F)cc1)C(=O)/C=C(\O)C(=O)O` [Compound 42, 3-[(4-Fluoro-benzyl)-(2-methoxy-ethyl)-carbamoyl]-2-hydroxy-acrylic acid], the inhibition at 70 µM was 91%. The result for `CN(Cc1ccccc1)C(=O)/C=C(\O)C(=O)O` [Compound 17, 3-(Benzyl-methyl-carbamoyl)-2-hydroxy-acrylic acid] reads 89.5%; that for `CN(Cc1ccccc1F)C(=O)/C=C(\O)C(=O)O` [Compound 38, 3-[(2-Fluoro-benzyl)-methyl-carbamoyl]-2-hydroxy-acrylic acid], 70%; that for `CN(Cc1cccc(C(F)(F)F)c1)C(=O)/C=C(\O)C(=O)O` [Compound 37, 2-Hydroxy-3-[methyl-(3-trifluoromethyl-benzyl)-carbamoyl]-acrylic acid], 82.5%.

Regarding `CN(Cc1ccccc1-c1ccccc1)C(=O)/C=C(\O)C(=O)O` [Compound 39, 3-(Biphenyl-2-ylmethyl-methyl-carbamoyl)-2-hydroxy-acrylic acid], the inhibition at 70 µM worked out at 85%. Regarding `CN(Cc1cccc(Cc2ccc(F)cc2)c1)C(=O)/C=C(\O)C(=O)O` [Compound 2, 3-{[3-(4-Fluoro-benzyl)-benzyl]-methyl-carbamoyl}-2-hydroxy-acrylic acid], the inhibition at 70 µM was determined as 88%. Consider `CN(Cc1ccc(OCc2ccccc2)cc1)C(=O)/C=C(\O)C(=O)O` [Compound 36, 3-[(4-Benzyloxy-benzyl)-methyl-carbamoyl]-2-hydroxy-acrylic acid], for which the inhibition at 70 µM was found to be 30%. Regarding `CN(C(=O)/C=C(\O)C(=O)O)C(c1ccc(Cl)cc1)c1ccc(Cl)cc1` [Compound 4, 3-{[Bis-(4-chloro-phenyl)-methyl]-methyl-carbamoyl}-2-hydroxy-acrylic acid], the inhibition at 70 µM was 90%.
